Experimental data taken from patent US11746110B2, “Alkynyl (hetero) aromatic ring compounds used for inhibiting protein kinase activity” (Shenzhen TargetRx, Inc., priority 2018, dated 2023).

What was measured:
Ba/F3 BCR-ABL cells = assay: Cell proliferation analysis, Ba/F3 BCR-ABL; format: cell-based; conditions: Mus musculus, BaF3, 72 h; 3 days, CellTiter-Glo
Experimental: [Worded in the source for another variant; this variant is reported under the same test.] (§1) The inhibitory effect of the example compounds on Ba/F3 parental, Ba/F3 Bcr-Abl^T315I, K562, Ba/F3 KIF5B-RET, BaF3 FLT3-ITD cell activity was determined.
(§2) Materials and reagents: RPMI-1640 medium (GIBCO, Catalog No. A10491-01), fetal bovine serum (GIBCO, Catalog No. 10099141), antibiotics (Penicillin-Streptomycin), IL-3(PeproTech), promycin; cell lines: Ba/F3 parental, Ba/F3 Bcr-Abl^T315I, Ba/F3 KIF5B-RET, BaF3 FLT3-ITD, (purchased from American type culture collection, ATCC), K562 live cell detection kit CellTiter-Glo4(Promega, Catalog No. G7572), 96-well black wall transparent flat bottom cell culture plate (Corning, Catalog No. 3340).
(§3) Test method: 1. Preparation of cell plate: Ba/F3 parental, Ba/F3 Bcr-Abl^T315I K563, Ba/F3 KIFSB-RET, BaF3 FLT3-ITD cells were respectively seeded in 96-well plates, and 8 ng/ml IL-3 was added to the Ba/F3 cells, and the cell plates were placed in a carbon dioxide incubator and cultured overnight. 2. The test compounds were dissolved in DMSO, 9 compound concentrations were made with a 3.16-fold gradient dilution in triplicate. 3. Treatment of the cells with compounds: The compounds were transferred to the cell plate with a starting concentration of 10 μM. The cell plate was placed in a carbon dioxide incubator for 3 days. 4. Detection: CellTiter-Glo agent was added to the cell plate, and incubated at room temperature for 30 minutes to stabilize the luminous signal. PerkinElmer Envision multi-label analyzer was used for reading, wherein A represents IC50≤50 nM, B represents IC50 is 50-100 nM, C represents IC50 is 100-500 nM, D represents IC50 is 500-1000 nM, […].

ABL^T315I = ABL^T315I (Homo sapiens (Human), UniProt P00519, T315I); assay: Biochemical kinase analysis, ABL T315I; conditions: kinase inhibition assay
Experimental: (§4) Reagents and materials: ABL (ThermoFisher, Cat. No. PV3585), ABL^T315I(Thermo Fisher, Cat. No. PR7429B), Ret (Carna, Cat. No. 08-159-10 ug), RET^V804M, Active (Signalchem, Cat. No. R02-12GG), ATP (Sigma, Cat. No. A7699-1G), DMSO (Sigma, Cat. No. D2650), 96-well plate (Corning, Cat. No. 3365), 384-well plate (Greiner, Cat. No. 784076), buffer solution (Thermo Fisher, Cat. No. PR4876B).
(§5) Compound formulation: The test compounds were dissolved in DMSO to prepare a 20 mM stock solution. Before use, the compounds were diluted in DMSO to 0.1 mM, and diluted into 11 concentrations with a 3-fold gradient. When addition, dilutions of 4-fold final concentration were then made with buffer solution.
(§6) Kinase assay method: After preparing the buffer, the enzyme was mixed with pre-formulated and diluted compounds of different concentrations in duplicate for each concentration, and placed at room temperature for 30 minutes. The corresponding substrate and ATP were added thereto, and reacted at room temperature for 60 minutes (both a negative and a positive control were set). After the reaction, antibody was added for detection, Evnvision detection was carried out after 60 minutes incubation at room temperature, and data was collected. Data analysis and fitting were made according to XLfit5 software.

ABL = ABL (Homo sapiens (Human), UniProt P00519); assay: Biochemical kinase analysis, ABL; conditions: kinase inhibition assay
Experimental: as §4, §5, §6

K562 cells = assay: Cell proliferation analysis, K562; format: cell-based; conditions: Homo sapiens, K562, 72 h; 3 days, CellTiter-Glo
Experimental: as §1, §2, §3

Ba/F3 parental cells = assay: Cell proliferation analysis, Ba/F3 parental; format: cell-based; conditions: Mus musculus, BaF3, 72 h; 3 days, CellTiter-Glo, 8 ng/ml IL-3
Experimental: as §1, §2, §3

[1] = system: Ba/F3 Bcr-Abl^T315I cells; assay: Cell proliferation analysis, Ba/F3 Bcr-Abl T315I; format: cell-based; conditions: Mus musculus, BaF3, 72 h; 3 days, CellTiter-Glo; read-out: IC50 (nM) Ba/F3 BCR-ABL^T315
Experimental: as §1, §2, §3

Ba/F3 KIF5B-RET cells = assay: Cell proliferation analysis, Ba/F3 KIF5B-RET; format: cell-based; conditions: Mus musculus, BaF3, 72 h; 3 days, CellTiter-Glo
Experimental: as §1, §2, §3

RET^V804M = RET^V804M (Homo sapiens (Human), UniProt P07949, V804M); assay: Biochemical kinase analysis, RET V804M; conditions: kinase inhibition assay
Experimental: as §4, §5, §6

Ret = Ret (Homo sapiens (Human), UniProt P07949); assay: Biochemical kinase analysis, Ret; conditions: kinase inhibition assay
Experimental: as §4, §5, §6

BaF3 FLT3-ITD cells = assay: Cell proliferation analysis, BaF3 FLT3-ITD; format: cell-based; conditions: Ba/F3 FLT3-ITD, 72 h; 3 days, CellTiter-Glo
Experimental: as §1, §2, §3

Chain of RET^V804M (P07949 29-1114 V804M): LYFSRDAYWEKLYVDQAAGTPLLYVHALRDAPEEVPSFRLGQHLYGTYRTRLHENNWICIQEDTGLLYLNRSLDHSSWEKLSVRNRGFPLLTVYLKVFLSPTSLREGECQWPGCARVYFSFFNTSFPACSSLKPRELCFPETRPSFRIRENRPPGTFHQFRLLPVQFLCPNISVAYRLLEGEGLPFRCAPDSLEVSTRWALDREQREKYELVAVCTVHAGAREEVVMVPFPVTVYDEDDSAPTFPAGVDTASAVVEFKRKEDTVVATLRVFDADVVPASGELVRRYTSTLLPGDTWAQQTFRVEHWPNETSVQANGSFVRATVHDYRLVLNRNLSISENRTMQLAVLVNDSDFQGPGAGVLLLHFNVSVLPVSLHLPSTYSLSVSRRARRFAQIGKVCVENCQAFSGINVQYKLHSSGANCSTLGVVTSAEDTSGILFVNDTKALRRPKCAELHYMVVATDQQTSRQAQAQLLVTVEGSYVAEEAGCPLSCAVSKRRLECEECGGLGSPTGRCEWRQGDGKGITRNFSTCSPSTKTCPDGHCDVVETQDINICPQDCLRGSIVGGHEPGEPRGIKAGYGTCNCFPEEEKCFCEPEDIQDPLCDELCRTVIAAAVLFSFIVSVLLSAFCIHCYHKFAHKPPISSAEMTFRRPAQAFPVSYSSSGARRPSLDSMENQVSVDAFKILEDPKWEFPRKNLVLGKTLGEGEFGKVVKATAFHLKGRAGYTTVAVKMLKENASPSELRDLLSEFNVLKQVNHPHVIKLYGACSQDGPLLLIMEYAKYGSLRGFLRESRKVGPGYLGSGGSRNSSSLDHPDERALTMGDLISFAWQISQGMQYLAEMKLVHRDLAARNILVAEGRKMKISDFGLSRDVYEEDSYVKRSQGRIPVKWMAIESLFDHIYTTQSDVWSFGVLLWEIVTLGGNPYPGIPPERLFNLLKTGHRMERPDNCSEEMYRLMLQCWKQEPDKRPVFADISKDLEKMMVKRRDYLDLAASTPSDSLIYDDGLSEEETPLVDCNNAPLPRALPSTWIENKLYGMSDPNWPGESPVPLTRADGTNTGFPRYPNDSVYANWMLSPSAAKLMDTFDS
Chain of Ret (P07949 29-1114): as the sequence (P07949 29-1114 V804M) above, with M776V counted along it

Cc1ccc(NC(=O)c2cc(C(C)(C)C)on2)cc1C#Cc1cnc2c(Nc3cnn(C)c3)nccn12 [Example 6, 5-(tert-butyl)-N-(4-methyl-3-((8-((1-methyl-1H-pyrazol-4-yl)amino)imidazo[1,2-a]pyrazin-3-yl)ethynyl)phenyl)isoxazole-3-carboxamide]
IC50 (Ba/F3 BCR-ABL cells): 9.61 nM | IC50 (ABL^T315I): 65 nM | IC50 (ABL): 1.6 nM | IC50 (K562 cells): 6.56 nM | IC50 (Ba/F3 parental cells): 5230 nM

COCCn1cc(Nc2nccn3c(C#Cc4cc(NC(=O)c5ccnc(C(F)(F)F)c5)ccc4C)cnc23)cn1 [Example 9, N-(3-((8-((1-(2-methoxyethyl)-1H-pyrazol-4-yl)amino)imidazo[1,2-a]pyrazin-3-yl)ethynyl)-4-methylphenyl)-2-(trifluoromethyl)isonicotinamide]
IC50 (Ba/F3 BCR-ABL cells): 2.75 nM | IC50 (ABL^T315I): 19.9 nM | IC50 (ABL): 0.93 nM | IC50 (K562 cells): 0.32 nM | IC50 (Ba/F3 parental cells): 4280 nM

COCCn1cc(Nc2nccn3c(C#Cc4cc(NC(=O)c5cccc(C(F)(F)F)c5)ccc4C)cnc23)cn1 [Example 8, N-(3-((8-((1-(2-methoxyethyl)-1H-pyrazol-4-yl)amino)imidazo[1,2-a]pyrazin-3-yl)ethynyl)-4-methylphenyl)-3-(trifluoromethyl)benzamide]
IC50 (Ba/F3 BCR-ABL cells): 6.29 nM | IC50 (ABL^T315I): 6.47 nM | IC50 [1]: 35.8 nM | IC50 (ABL): 2.55 nM | IC50 (K562 cells): 0.96 nM | IC50 (Ba/F3 parental cells): 927 nM

Cc1ccc(NC(=O)c2cccc(C(F)(F)F)c2)cc1C#Cc1cnc2c(Nc3cnn(C)c3)nccn12 [Example 1, N-(4-methyl-3-((8-((1-methyl-1H-pyrazol-4-yl)amino)imidazo[1,2-a]pyrazin-3-yl)ethynyl)phenyl)-3-(trifluoromethyl)benzamide]
IC50 (Ba/F3 BCR-ABL cells): 5.63 nM | IC50 (Ba/F3 KIF5B-RET cells): 10.1 nM | IC50 (ABL^T315I): 9.05 nM | IC50 (RET^V804M): 12.2 nM | IC50 [1]: 15 nM | IC50 (ABL): 3.91 nM | IC50 (K562 cells): 0.28 nM | IC50 (Ba/F3 parental cells): 838 nM | IC50 (Ret): 0.88 nM | IC50 (BaF3 FLT3-ITD cells): 17.7 nM

COCCn1cc(Nc2nccn3c(C#Cc4cc(NC(=O)c5cc(C(C)(C)C)on5)ccc4C)cnc23)cn1 [Example 10, 5-(tert-butyl)-N-(3-((8-((1-(2-methoxyethyl)-1H-pyrazol-4-yl)amino)imidazo[1,2-a]pyrazin-3-yl)ethynyl)-4-methylphenyl)isoxazole-3-carboxamide]
IC50 (Ba/F3 BCR-ABL cells): 17.3 nM | IC50 [1]: 56.1 nM | IC50 (ABL): 2.7 nM | IC50 (K562 cells): 1.27 nM | IC50 (Ba/F3 parental cells): 2680 nM

Cc1ccc(C(=O)Nc2cccc(C(F)(F)F)c2)cc1C#Cc1cnc2c(Nc3cnn(C)c3)ccnn12 [Example 14, 4-methyl-3-((8-((1-methyl-1H-pyrazol-4-yl)amino)imidazo[1,2-b]pyridazin-3-yl)ethynyl)-N-(3-(trifluoromethyl)phenyl)benzamide]
IC50 (Ba/F3 BCR-ABL cells): 9.02 nM | IC50 (Ba/F3 KIF5B-RET cells): 15.8 nM | IC50 (ABL^T315I): 12.6 nM | IC50 (RET^V804M): 9.92 nM | IC50 [1]: 24.9 nM | IC50 (ABL): 4.91 nM | IC50 (K562 cells): 0.97 nM | IC50 (Ba/F3 parental cells): 1550 nM | IC50 (Ret): 0.49 nM | IC50 (BaF3 FLT3-ITD cells): 23 nM

Cc1ccc(NC(=O)c2ccc(C)c(C(F)(F)F)c2)cc1C#Cc1cnc2c(Nc3cnn(C)c3)ccnn12 [Example 13, 4-methyl-N-(4-methyl-3-((8-((1-methyl-1H-pyrazol-4-yl)amino)imidazo[1,2-b]pyridazin-3-yl)ethynyl)phenyl)-3-(trifluoromethyl)benzamide]
IC50 (Ba/F3 BCR-ABL cells): 15.6 nM | IC50 (ABL^T315I): 67.2 nM | IC50 [1]: 162 nM | IC50 (ABL): 9.88 nM | IC50 (K562 cells): 1.3 nM | IC50 (Ba/F3 parental cells): 1220 nM

Cc1ccc(C(=O)Nc2ccc(CN3CCN(C)CC3)c(C(F)(F)F)c2)cc1C#Cc1cnc2c(Nc3cnn(C)c3)ccnn12 [Example 15, 4-methyl-3-((8-((1-methyl-1H-pyrazol-4-yl)amino)imidazo[1,2-b]pyridazin-3-yl)ethynyl)-N-(4-((4-methylpiperazin-1-yl)methyl)-3-(trifluoromethyl)phenyl)benzamide]
IC50 (Ba/F3 BCR-ABL cells): 12.8 nM | IC50 (Ba/F3 KIF5B-RET cells): 4.56 nM | IC50 (ABL^T315I): 4.28 nM | IC50 (RET^V804M): 1.42 nM | IC50 [1]: 25.2 nM | IC50 (ABL): 3.24 nM | IC50 (K562 cells): 0.76 nM | IC50 (Ba/F3 parental cells): 280 nM | IC50 (Ret): 0.37 nM | IC50 (BaF3 FLT3-ITD cells): 1.14 nM

Cc1ccc(NC(=O)c2ccnc(C(F)(F)F)c2)cc1C#Cc1cnc2c(Nc3cnn(C)c3)ccnn12 [Example 12, N-(4-methyl-3-((8-((1-methyl-1H-pyrazol-4-yl)amino)imidazo[1,2-b]pyridazin-3-yl)ethynyl)phenyl)-2-(trifluoromethyl)isonicotinamide]
IC50 (Ba/F3 BCR-ABL cells): 7.75 nM | IC50 (ABL): 2.24 nM | IC50 (K562 cells): 0.27 nM | IC50 (Ba/F3 parental cells): 1890 nM

Cc1ccc(NC(=O)c2cccc(C(F)(F)F)c2)cc1C#Cc1cnc2c(Nc3cnn(C)c3)ccnn12 [Example 11, N-(4-methyl-3-((8-((1-methyl-1H-pyrazol-4-yl)amino)imidazo[1,2-b]pyridazin-3-yl)ethynyl)phenyl)-3-(trifluoromethyl)benzamide]
IC50 (Ba/F3 BCR-ABL cells): 4.76 nM | IC50 (ABL^T315I): 57.2 nM | IC50 [1]: 144 nM | IC50 (ABL): 4.18 nM | IC50 (K562 cells): 0.26 nM | IC50 (Ba/F3 parental cells): 770 nM

Cc1cn(-c2cc(C(=O)Nc3ccc(C)c(C#Cc4cnc5c(Nc6cnn(C)c6)nccn45)c3)cc(C(F)(F)F)c2)cn1 [Example 4, 3-(4-methyl-1H-imidazol-1-yl)-N-(4-methyl-3-((8-((1-methyl-1H-pyrazol-4-yl)amino)imidazo[1,2-a]pyrazin-3-yl)ethynyl)phenyl)-5-(trifluoromethyl)benzamide]
IC50 (Ba/F3 BCR-ABL cells): 19.7 nM | IC50 (ABL^T315I): 7.69 nM | IC50 [1]: 50.2 nM | IC50 (ABL): 4.93 nM | IC50 (K562 cells): 3.8 nM | IC50 (Ba/F3 parental cells): 314 nM

Cc1ccc(NC(=O)Nc2ccc(Cl)c(C(F)(F)F)c2)cc1C#Cc1cnc2c(Nc3cnn(C)c3)ccnn12 [Example 16, 1-(4-chloro-3-(trifluoromethyl)phenyl)-3-(4-methyl-3-((8-((1-methyl-1H-pyrazol-4-yl)amino)imidazo[1,2-b]pyridazin-3-yl)ethynyl)phenyl)urea]
IC50 (K562 cells): 12.1 nM | IC50 (Ba/F3 parental cells): 1370 nM

Cc1ccc(NC(=O)c2ccc(CN3CCN(C)CC3)c(C(F)(F)F)c2)cc1C#Cc1cnc2c(Nc3cnn(C)c3)nccn12 [Example 5, N-(4-methyl-3-((8-((1-methyl-1H-pyrazol-4-yl)amino)imidazo[1,2-a]pyrazin-3-yl)ethynyl)phenyl)-4-((4-methylpiperazin-1-yl)methyl)-3-(trifluoromethyl)benzamide]
IC50 (Ba/F3 BCR-ABL cells): 10.6 nM | IC50 (ABL^T315I): 3.44 nM | IC50 [1]: 88 nM | IC50 (ABL): 3.33 nM | IC50 (K562 cells): 1.32 nM | IC50 (Ba/F3 parental cells): 340 nM

Cc1ccc(NC(=O)Nc2ccc(Cl)c(C(F)(F)F)c2)cc1C#Cc1cnc2c(Nc3cnn(C)c3)nccn12 [Example 7, 1-(4-chloro-3-(trifluoromethyl)phenyl)-3-(4-methyl-3-((8-((1-methyl-1H-pyrazol-4-yl)amino)imidazo[1,2-a]pyrazin-3-yl)ethynyl)phenyl)urea]
IC50 [1]: 291 nM | IC50 (K562 cells): 4.53 nM | IC50 (Ba/F3 parental cells): 620 nM
